Assays:
[1] = Measurement of Body Temperature Increase; type: in vivo; settings: Crl/SD rats, oral, 1 mg/mL in 0.5% methylcellulose at 10 mL/kg; rectal temperature 0.5, 1 and 2 hrs after administration; difference from vehicle group average
Protocol: Selection of rats (Crl/SD rats, 7 weeks, male) for this study is based on rectal body temperature measured during the morning of the day of dosing. In addition, animals selected for this study are acclimated to both the rectal measurement procedure and to being handled and dosed to minimize spontaneous, stress-induced, increases in body temperature. The study is conducted in the animal care laboratories where the room temperature and humidity are kept. The rats are free to move and food and water during the study. Each rat is numbered with color line on the tail, housed in each cage and permittted the normal range of movement. Immediately before each body temperature is measured, they transferred to a single cage at each measurement. To reduce stress which affected the body temperature, the rats are covered with towels at the measurement. The thermistor probe is then carefully inserted into the rectum of each rat and left in place until the value on the digital display had stabilized.
On the day before dosing, rectal body temperatures are measured at 9:00, 10:00, 11:00, 12:30, 13:30, 14:30 and 15:30 to familiarize the animals with the measurement procedure prior to administration of the test or control treatments. The rats are also dosed by oral gavage without vehicle at 12:30 to acclimate and familiarized the animals with the handling and dosing procedure.
On the day of dosing, only rats whose rectal body temperatures are within the range of 37.0° C. to 37.7° C. are selected for this study. Rectal body temperatures are measured at 9:00, 10:00 and 11:00. Rats whose rectal body temperatures are over 37.9° C. at 10:00, and are outside the range of 37.0° C. to 37.7° C. at 11:00 are excluded from the study. The selected rats are divided to several groups based on their rectal body temperatures at 11:00. Rectal body temperatures of the selected rats are measured again at 12:30, and any rats whose rectal body temperature is 38.0° C. or greater are excluded from the study.
Following the group assignment, test compounds or vehicle is administrated to the rats. Each test compound is dissolved in 0.5% methylcellulose and the final concentration of the compound is adjusted to 1 mg/mL. Test compound is orally administrated in a volume 10 mL/kg once. 10 mL/kg of vehicle (0.5% methylcellulose) is administered to the vehicle group. The rectal body temperatures are measured 0.5, 1 and 2 hrs after the administration. The study is conducted in the animal care laboratories where the room temperature and humidity are kept.
Body temperature increase (ΔTb) is calculated from the difference from an average of the vehicle group at each time point. The body temperature increases (ΔTb) of Compounds I-20, I-25, I-26, I-28, I-29, I-33, I-34, I-36, I-37, I-63 and I-64 were less than 0.3° C.

[2] = biological target: T1, Human TRPV1 (Homo sapiens (Human), UniProt Q8NER1); assay: pH-Based Assay (Protocol 2), Ca2+ response in TRPV1/CHO cells; type: cell-based; settings: pH 5.0-5.1 (H2SO4)
T1 sequence (Q8NER1 whole entry): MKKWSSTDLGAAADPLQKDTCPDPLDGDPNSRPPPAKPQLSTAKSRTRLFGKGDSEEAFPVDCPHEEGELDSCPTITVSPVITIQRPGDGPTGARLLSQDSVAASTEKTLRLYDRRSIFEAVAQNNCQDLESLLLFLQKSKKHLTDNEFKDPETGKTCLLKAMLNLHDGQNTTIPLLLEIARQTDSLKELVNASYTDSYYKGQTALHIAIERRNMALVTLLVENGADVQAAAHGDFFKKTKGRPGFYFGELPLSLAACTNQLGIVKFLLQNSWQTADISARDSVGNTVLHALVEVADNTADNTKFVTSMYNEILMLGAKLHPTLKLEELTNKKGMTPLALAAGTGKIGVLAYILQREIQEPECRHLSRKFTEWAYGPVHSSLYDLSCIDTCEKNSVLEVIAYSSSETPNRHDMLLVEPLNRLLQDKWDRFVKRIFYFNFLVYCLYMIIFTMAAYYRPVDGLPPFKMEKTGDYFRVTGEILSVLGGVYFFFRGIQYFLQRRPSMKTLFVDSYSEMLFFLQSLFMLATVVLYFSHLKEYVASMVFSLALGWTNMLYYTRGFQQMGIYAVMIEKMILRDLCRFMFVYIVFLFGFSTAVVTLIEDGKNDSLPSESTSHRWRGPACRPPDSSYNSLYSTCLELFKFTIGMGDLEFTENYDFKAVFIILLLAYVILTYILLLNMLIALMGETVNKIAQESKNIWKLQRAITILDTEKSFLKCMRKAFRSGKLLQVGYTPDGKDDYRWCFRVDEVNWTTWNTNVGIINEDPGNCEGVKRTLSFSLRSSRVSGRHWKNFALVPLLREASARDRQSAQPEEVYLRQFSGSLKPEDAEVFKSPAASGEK
Protocol: The TRPV1/CHO cell line was generated as described below. The following assay was conducted to determine the concentration of sulfuric acid that would give rise to a pH that induces a […] response optimal to test compounds for their effect on TRPV1. […] For one half of a 96-well plate one agonist solution was used, for the other half the other agonist solution. The agonist solutions were obtained by diluting sulfuric acid (H2SO4, 1 M) with measuring buffer. The concentrations for the two agonist solutions were determined as described above in Section 2 of Protocol 2. The sulfuric acid concentrations between the two agonist solutions differed by 0.5 mM. […] The thereby-obtained solutions were further diluted in measuring buffer (1:100) as 10× stock serial dilutions with a DMSO concentration of 1%. 10 μL of a 10× stock was added into each well at step 3.3.(4) of Protocol 2. Thus, the final concentrations of antagonists ranged from 1000-0.977 nM containing 0.1% DMSO (FIG. 3B). […] (3) The cells were washed twice with 150 μL of measuring buffer (mentioned in 2.2.(3) of Protocol 2, no probenecid). The wells were subsequently refilled with 70 μL of measuring buffer. (4) Either 10 μL of measuring buffer or 10 μL of 10× stock serial dilution of test compound (described in 3.2. above) were applied to each well. Usually, only one test compound was tested per 96-well plate. The number of replicates per 96-well plate for a particular antagonist at a particular concentration was 7×2 since two different sulfuric acid concentrations were used per 96-well plate (N=7×2)(FIG. 3). Step (5) was the same as 2.2.(4) above. (6) Fura-2 fluorescent intensity was monitored as described in 2.2.(5) above. […] Steps (7) and (8) were as described in 2.2.(6) and 2.2.(7) above, respectively. […] FIG. 3) were measured one by one using a portable pH meter.

[3] = biological target: T1, Human TRPV1; assay: Capsaicin-Based Assay (Protocol 2), TRPV1/CHO cells; type: cell-based; settings: capsaicin 100 nM final, Fluo-4, read-out: TRPV1 IC50 Potency Capsaicin-Based Assay IC50
Protocol: The TRPV1/CHO cell line was generated as described below. […] Subsequently, the cells were loaded by incubation in 0.1 mL of wash buffer containing Fluo-4 at 3 μM final concentration. After 1 hour, the cells were washed twice with 0.2 mL wash buffer and resuspended in 0.1 mL wash buffer. The plates were then transferred to a Fluorescence Imaging Plate Reader (Molecular Devices). Fluorescence intensity was monitored for 15 seconds to establish a baseline. […] The final concentration of the compound was adjusted to range from 100 μM to 1.5625 μM. […] Data were collected over the entire time course and analyzed using Excel and the curve-fitting formula GraphPad Prism.

Body temperature increase (ΔTb) [1]	Structure (SMILES)	other results
less than 0.3 °C	O=C(Nc1ccc(C(F)(F)F)cn1)N1CC=C(c2ncc(-c3nc(CO)no3)cc2F)CC1 [Compound I-63, 4-(3-fluoro-5-(3-(hydroxymethyl)-1,2,4-oxadiazol-5-yl)pyridin-2-yl)-N-(5-(trifluoromethyl)pyridin-2-yl)-5,6-dihydropyridine-1(2H)-carboxamide]	–
less than 0.3 °C	O=C(Nc1ccc(C(F)(F)F)c(Cl)c1)N1CC=C(c2ncc(-c3nc(CO)no3)cc2Cl)CC1 [Compound I-36, N-(3-chloro-4-(trifluoromethyl)phenyl)-4-(3-chloro-5-(3-(hydroxymethyl)-1,2,4-oxadiazol-5-yl)pyridin-2-yl)-5,6-dihydropyridine-1(2H)-carboxamide]	IC50 ([2]; Fura-2, read-out: IC50 value by the pH-Based Assay): ≤ 100 nM
less than 0.3 °C	O=C(Nc1ccc(C(F)(F)F)cn1)N1CC=C(c2ncc(-c3noc(CO)n3)cc2Cl)CC1 [Compound I-26, 4-(3-chloro-5-(5-(hydroxymethyl)-1,2,4-oxadiazol-3-yl)pyridin-2-yl)-N-(5-(trifluoromethyl)pyridin-2-yl)-5,6-dihydropyridine-1(2H)-carboxamide]	–
less than 0.3 °C	O=C(Nc1nc2ccc(F)cc2s1)N1CC=C(c2ncc(-c3cc(CO)on3)cc2Cl)CC1 [Compound I-34, 4-(3-chloro-5-(5-(hydroxymethyl)isoxazol-3-yl)pyridin-2-yl)-N-(6-fluorobenzo[d]thiazol-2-yl)-5,6-dihydropyridine-1(2H)-carboxamide]	IC50 ([2]; Fura-2, read-out: TRPV1 IC50 Potency pH-Based Assay IC50): 33.6 nM
less than 0.3 °C	O=C(Nc1ccc(C(F)(F)F)c(Cl)c1)N1CC=C(c2ncc(-c3noc(CO)n3)cc2Cl)CC1 [Compound I-25, N-(3-chloro-4-(trifluoromethyl)phenyl)-4-(3-chloro-5-(5-(hydroxymethyl)-1,2,4-oxadiazol-3-yl)pyridin-2-yl)-5,6-dihydropyridine-1(2H)-carboxamide]	–
less than 0.3 °C	Cc1cc(NC(=O)N2CC=C(c3ncc(-c4nc(CO)no4)cc3F)CC2)ccc1C(F)(F)F [Compound I-64, 4-(3-fluoro-5-(3-(hydroxymethyl)-1,2,4-oxadiazol-5-yl)pyridin-2-yl)-N-(3-methyl-4-(trifluoromethyl)phenyl)-5,6-dihydropyridine-1(2H)-carboxamide]	–
less than 0.3 °C	O=C(Nc1ccc(C(F)(F)F)c(Cl)c1)N1CC=C(c2ncc(-c3cc(CO)on3)cc2Cl)CC1 [Compound I-29, N-(3-chloro-4-(trifluoromethyl)phenyl)-4-(3-chloro-5-(5-(hydroxymethyl)isoxazol-3-yl)pyridin-2-yl)-5,6-dihydropyridine-1(2H)-carboxamide]	–
less than 0.3 °C	O=C(Nc1ccc(C(F)(F)F)cn1)N1CC=C(c2ncc(-c3nc(CO)no3)cc2Cl)CC1 [Compound I-37, 4-(3-chloro-5-(3-(hydroxymethyl)-1,2,4-oxadiazol-5-yl)pyridin-2-yl)-N-(5-(trifluoromethyl)pyridin-2-yl)-5,6-dihydropyridine-1(2H)-carboxamide]	–
less than 0.3 °C	O=C(Nc1ccc(C(F)(F)F)c(Cl)c1)N1CC=C(c2ncc(-c3ocnc3CO)cc2Cl)CC1 [Compound I-28, N-(3-chloro-4-(trifluoromethyl)phenyl)-4-(3-chloro-5-(4-(hydroxymethyl)oxazol-5-yl)pyridin-2-yl)-5,6-dihydropyridine-1(2H)-carboxamide]	–
less than 0.3 °C	O=C(Nc1ccc(C(F)(F)F)c(Cl)c1)N1CC=C(c2ncc(-c3nnc([C@H](O)CO)o3)cc2Cl)CC1 [Compound I-20, (R) —N-(3-chloro-4-(trifluoromethyl)phenyl)-4-(3-chloro-5-(5-(1,2-dihydroxyethyl)-1,3,4-oxadiazol-2-yl)pyridin-2-yl)-5,6-dihydropyridine-1(2H)-carboxamide]	IC50 [3]: 147 nM

— US9156830B2, “Heterocyclic compounds” (SHIONOGI & CO., LTD., priority 2011, dated 2015)
